Measured values from US7186862B2, “Microbicidal agents on the basis of biphenylbenzamide derivatives” (Bayer CropScience AG, priority 2002, dated 2007).

Assays:
[1] = test system: Venturia inaequalis; assay: Venturia test (apple)/protective; format: in vivo; details: 240 h, application rate 100 g/ha, apple plants, protective spray, evaluation 10 days after inoculation, 100% = no infection, read-out: Efficacy in %
Description: (§1) [table] To produce a suitable preparation of active compound, 1 part by weight of active compound is mixed with the stated amounts of solvent and emulsifier, and the concentrate is diluted with water to the desired concentration. To test for protective activity, young plants are sprayed with the preparation of active compound at the stated application rate. After the spray coating has dried on, the plants are inoculated with an aqueous conidia suspension of the apple scab pathogen Venturia inaequalis and then remain in an incubation cabin at about 20° C. and 100% relative atmospheric humidity for 1 day. The plants are then placed in a greenhouse at about 21° C. and a relative atmospheric humidity of about 90%. Evaluation is carried out 10 days after the inoculation. 0% means an efficacy which corresponds to that of the control, whereas an efficacy of 100% means that no infection is observed.

[2] = test system: Podosphaera leucotricha; assay: Podosphaera test (apple)/protective; format: in vivo; details: 240 h, application rate 100 g/ha, apple plants, protective spray, evaluation 10 days after inoculation, 100% = no infection, read-out: Efficacy in %
Description: as §1, with “spore” for “conidia”, “mildew” for “scab”, “Podosphaera leucotricha.” for “Venturia inaequalis and then remain in an incubation cabin at about 20° C. and 100% relative atmospheric humidity for 1 day.”, “23°” for “21°”, “70%.” for “90%.”

[3] = test system: Sphaerotheca fuliginea; assay: Sphaerotheca test (cucumber)/protective; format: in vivo; details: Podosphaera fuliginea, 168 h; application rate 100 g/ha; cucumber plants, protective spray; evaluation 7 days after inoculation; 100% = no infection; read-out: Efficacy in %
Description: as §1, with “aqueous spore” for “aqueous conidia”, “of Sphaerotheca fuliginea.” for “of the apple scab pathogen Venturia inaequalis and then remain in an incubation cabin at about 20° C. and 100% relative atmospheric humidity for 1 day.”, “about 23°” for “about 21°”, “about 70%.” for “about 90%.”, “out 7” for “out 10”

[4] = test system: Pyrenophora teres; assay: Pyrenophora teres test (barley)/protective; format: in vivo; details: application rate 500 g/ha; barley plants, protective spray
Description: [table] To produce a suitable preparation of active compound, 1 part by weight of active compound is mixed with the stated amounts of solvent and emulsifier, and the concentrate is diluted with water to the desired concentration. To test for protective activity, young plants are sprayed with the preparation of active compound at the stated application rate. After the spray coating has dried on, the plants are sprayed with a conidia suspension of Pyrenophora teres. The plants remain in an incubation cabin at 20° C. and 100% relative atmospheric humidity for 48 hours. The plants are then placed in a greenhouse at about 20° C. and a relative atmospheric humidity of about 80%.

[5] = logP determination by HPLC on reversed-phase column (EEC Directive 79/831); format: physicochemical; details: reversed-phase HPLC column (C18), pH 2.3, reversed-phase C18, 43° C., 0.1% aqueous phosphoric acid/acetonitrile gradient
Description: The logP values given in the tables and preparation examples above are determined in accordance with EEC Directive 79/831 Annex V.48 by HPLC (High Performance Liquid Chromatography) on a reversed-phase column (C18). Temperature: 43° C. The determination is carried out in the acidic range at pH 2.3 using the mobile phases 0.1% aqueous phosphoric acid and acetonitrile; linear gradient from 10% acetonitrile to 90% acetonitrile. Calibration is carried out using unbranched […] (of 3 to 16 carbon atoms) with known logP values (determination of the logP values by the retention time using linear interpolation between two successive alkanones).

[6] = test system: Alternaria solani; assay: Alternaria test (tomato)/protective; format: in vivo; details: application rate 750 g/ha; tomato plants, protective spray, inoculation 1 day after treatment; evaluation 7 days after inoculation; 100% = no infection
Description: [table] To produce a suitable p reparation of active compound, 1 part by weight of active compound is mixed with the stated amounts of solvent and emulsifier, and the concentrate is diluted with water to the desired concentration. To test for protective activity, young tomato plants are sprayed with the preparation of active compound at the stated application rate. 1 day after the treatment, the plants are inoculated with a spore suspension of Alternaria solani and are then kept at 100% relative atmospheric humidity and 20° C. for 24 h. The plants are then kept at 96% relative atmospheric humidity and a temperature of 20° C. Evaluation is carried out 7 days after the inoculation. 0% means an efficacy which corresponds to that of the control, whereas an efficacy of 100% means that no infection is observed.

chromatographic logP [5] | SMILES | pest or weed control at 100 g/ha [1] [%] | pest or weed control at 100 g/ha [2] [%] | pest or weed control at 100 g/ha [3] [%] | Efficacy in % [4] [%] | Efficacy in % [6] [%]
4.13 | O=C(Nc1ccccc1-c1ccc(Cl)c(Cl)c1)c1ccccc1C(F)(F)F [Compound 4] | 100 | 100 | 100 | 100 | 
3.86 | O=C(Nc1ccccc1-c1cccc(Cl)c1)c1ccccc1C(F)(F)F [Compound 7] | 100 | 100 | 100 | 90 | 94
